Assay results: ChEMBL document CHEMBL1201862, “PubChem BioAssay data set” (2004)
Activity calls are given as the source filed them.

Legend:
[1] = Luminescence Cell-Based Dose Retest to Confirm Inhibitors of Cancer Stem Cells. [Related pubchem assays (depositor defined):AID2717, AID2721]; assay type: functional; conditions: Homo sapiens
[2] = biological target: T1, Histone-lysine N-methyltransferase NSD2 (Homo sapiens, UniProt O96028); assay type: biochemical
T1 sequence (O96028 whole entry): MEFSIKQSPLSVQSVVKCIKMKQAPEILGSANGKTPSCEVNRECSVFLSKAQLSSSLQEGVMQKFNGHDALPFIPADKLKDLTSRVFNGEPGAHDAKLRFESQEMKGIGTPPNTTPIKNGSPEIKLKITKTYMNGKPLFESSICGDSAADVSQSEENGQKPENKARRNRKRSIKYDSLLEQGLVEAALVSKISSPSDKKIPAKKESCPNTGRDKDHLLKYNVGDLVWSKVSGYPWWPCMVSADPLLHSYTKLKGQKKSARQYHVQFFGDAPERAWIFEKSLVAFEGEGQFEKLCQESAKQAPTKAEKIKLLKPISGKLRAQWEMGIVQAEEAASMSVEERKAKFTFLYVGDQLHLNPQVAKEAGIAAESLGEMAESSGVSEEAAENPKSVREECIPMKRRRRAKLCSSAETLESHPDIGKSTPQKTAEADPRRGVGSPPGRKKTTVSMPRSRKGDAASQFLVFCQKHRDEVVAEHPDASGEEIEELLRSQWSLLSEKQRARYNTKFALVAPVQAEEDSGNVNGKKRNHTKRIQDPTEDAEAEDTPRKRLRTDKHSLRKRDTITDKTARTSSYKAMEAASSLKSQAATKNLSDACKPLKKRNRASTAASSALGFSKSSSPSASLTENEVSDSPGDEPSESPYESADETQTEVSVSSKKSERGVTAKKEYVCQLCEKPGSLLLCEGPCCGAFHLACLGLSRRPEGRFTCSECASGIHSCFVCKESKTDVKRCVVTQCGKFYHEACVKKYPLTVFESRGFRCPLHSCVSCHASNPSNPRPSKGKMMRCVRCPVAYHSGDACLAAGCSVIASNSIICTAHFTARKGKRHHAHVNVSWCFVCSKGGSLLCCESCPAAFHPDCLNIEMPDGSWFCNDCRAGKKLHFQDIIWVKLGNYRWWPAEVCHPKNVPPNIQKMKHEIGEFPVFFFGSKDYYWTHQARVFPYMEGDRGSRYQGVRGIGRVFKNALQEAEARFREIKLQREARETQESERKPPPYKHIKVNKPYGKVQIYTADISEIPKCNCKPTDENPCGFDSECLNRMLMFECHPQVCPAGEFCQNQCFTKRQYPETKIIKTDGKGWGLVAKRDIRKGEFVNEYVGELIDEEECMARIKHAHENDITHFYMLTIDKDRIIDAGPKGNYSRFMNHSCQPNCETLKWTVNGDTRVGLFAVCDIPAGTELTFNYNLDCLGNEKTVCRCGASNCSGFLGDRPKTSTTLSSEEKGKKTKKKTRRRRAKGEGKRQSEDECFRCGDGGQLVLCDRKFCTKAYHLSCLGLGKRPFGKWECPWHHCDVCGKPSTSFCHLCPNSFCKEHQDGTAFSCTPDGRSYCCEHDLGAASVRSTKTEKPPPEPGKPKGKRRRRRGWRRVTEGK

[3] = biological target: Heat shock protein HSP 90-alpha (Homo sapiens, UniProt P07900); assay type: functional, organism-based
Streptococcus = experiment: Group A Streptococcus viability loss, dose response, counter-screen for streptokinase expression inhibitor project, luminescence, BacTiterGlo (AID 1915); assay type: functional, organism-based;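 also: potency for reduction of bacterial viability or growth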
[4] = tested on: Streptococcus sp. 'group A'; experiment: growth inhibition of control SK(-) GAS strain, dose response, counter-screen for streptokinase expression inhibitor project, luminescence, kanamycin, BacTiterGlo, confirmation (AID 1900); assay type: functional, organism-based
Streptokinase A = biological target: T2, Streptokinase A (Streptococcus pyogenes serotype M1, UniProt P10520); experiment: S. pyogenes streptokinase expression inhibitors, potency, dose response, plasminogen activation absorbance, OD405 (AID 1914); assay type: functional, Streptococcus pyogenes M1 GAS;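 also: secreted streptokinase activity via plasminogen activation per viability signal from cell pellet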
T2 sequence (P10520 whole entry): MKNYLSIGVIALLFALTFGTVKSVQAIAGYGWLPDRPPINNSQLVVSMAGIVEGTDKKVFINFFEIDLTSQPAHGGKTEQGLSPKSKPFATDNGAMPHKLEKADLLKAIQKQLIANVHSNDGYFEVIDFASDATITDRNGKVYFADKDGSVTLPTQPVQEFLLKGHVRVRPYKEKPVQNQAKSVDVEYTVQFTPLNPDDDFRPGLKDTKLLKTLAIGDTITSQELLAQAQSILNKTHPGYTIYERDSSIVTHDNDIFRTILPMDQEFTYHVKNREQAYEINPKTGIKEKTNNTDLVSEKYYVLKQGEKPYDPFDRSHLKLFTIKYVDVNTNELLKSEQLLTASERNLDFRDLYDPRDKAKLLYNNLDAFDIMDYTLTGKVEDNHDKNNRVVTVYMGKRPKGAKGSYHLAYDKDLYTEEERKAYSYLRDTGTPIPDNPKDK

[5] = microbe, parasite or virus in culture; assay type: functional; conditions: Mycobacterium tuberculosis
Genome polyprotein = Genome polyprotein (dengue virus type 2, UniProt P29990); experiment: Dengue-2 NS5 methyltransferase inhibitors, primary screen, biochemical, confirmation dose response (AID 588689); assay type: functional
Sequence of Genome polyprotein (P29990 2492-3391 limits assumed): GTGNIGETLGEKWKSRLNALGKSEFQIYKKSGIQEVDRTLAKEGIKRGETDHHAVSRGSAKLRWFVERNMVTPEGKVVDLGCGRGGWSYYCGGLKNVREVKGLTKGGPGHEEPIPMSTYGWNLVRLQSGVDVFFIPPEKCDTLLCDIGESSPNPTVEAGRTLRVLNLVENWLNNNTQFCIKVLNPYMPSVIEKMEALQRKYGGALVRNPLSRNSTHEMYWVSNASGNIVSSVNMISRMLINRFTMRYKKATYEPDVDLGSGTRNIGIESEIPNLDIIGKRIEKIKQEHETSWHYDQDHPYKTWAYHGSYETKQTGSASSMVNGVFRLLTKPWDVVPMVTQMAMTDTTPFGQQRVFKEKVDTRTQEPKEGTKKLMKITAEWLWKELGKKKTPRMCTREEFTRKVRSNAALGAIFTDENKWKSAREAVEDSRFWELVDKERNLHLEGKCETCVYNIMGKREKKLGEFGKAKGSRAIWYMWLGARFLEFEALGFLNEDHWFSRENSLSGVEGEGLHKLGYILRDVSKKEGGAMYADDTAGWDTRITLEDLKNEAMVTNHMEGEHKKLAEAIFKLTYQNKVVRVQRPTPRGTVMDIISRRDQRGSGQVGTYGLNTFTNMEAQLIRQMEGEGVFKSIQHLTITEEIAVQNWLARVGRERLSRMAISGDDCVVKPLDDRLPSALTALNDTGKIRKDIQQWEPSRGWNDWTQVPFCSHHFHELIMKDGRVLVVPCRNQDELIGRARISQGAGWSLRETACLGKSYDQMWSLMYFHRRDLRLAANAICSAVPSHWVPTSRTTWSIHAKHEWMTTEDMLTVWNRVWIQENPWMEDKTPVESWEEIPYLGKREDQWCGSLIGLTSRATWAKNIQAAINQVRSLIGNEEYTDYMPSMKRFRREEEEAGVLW

Aminopeptidase N = biological target: T3, Aminopeptidase N (Plasmodium falciparum FcB1/Columbia, UniProt O96935); experiment: P. falciparum M1AAP inhibitors, biochemical, fluorogenic H-Leu-NHMec substrate, 1536-well (AID 1445); set-up: species or system Plasmodium falciparum 3D7, 3D7
T3 sequence (O96935 whole entry): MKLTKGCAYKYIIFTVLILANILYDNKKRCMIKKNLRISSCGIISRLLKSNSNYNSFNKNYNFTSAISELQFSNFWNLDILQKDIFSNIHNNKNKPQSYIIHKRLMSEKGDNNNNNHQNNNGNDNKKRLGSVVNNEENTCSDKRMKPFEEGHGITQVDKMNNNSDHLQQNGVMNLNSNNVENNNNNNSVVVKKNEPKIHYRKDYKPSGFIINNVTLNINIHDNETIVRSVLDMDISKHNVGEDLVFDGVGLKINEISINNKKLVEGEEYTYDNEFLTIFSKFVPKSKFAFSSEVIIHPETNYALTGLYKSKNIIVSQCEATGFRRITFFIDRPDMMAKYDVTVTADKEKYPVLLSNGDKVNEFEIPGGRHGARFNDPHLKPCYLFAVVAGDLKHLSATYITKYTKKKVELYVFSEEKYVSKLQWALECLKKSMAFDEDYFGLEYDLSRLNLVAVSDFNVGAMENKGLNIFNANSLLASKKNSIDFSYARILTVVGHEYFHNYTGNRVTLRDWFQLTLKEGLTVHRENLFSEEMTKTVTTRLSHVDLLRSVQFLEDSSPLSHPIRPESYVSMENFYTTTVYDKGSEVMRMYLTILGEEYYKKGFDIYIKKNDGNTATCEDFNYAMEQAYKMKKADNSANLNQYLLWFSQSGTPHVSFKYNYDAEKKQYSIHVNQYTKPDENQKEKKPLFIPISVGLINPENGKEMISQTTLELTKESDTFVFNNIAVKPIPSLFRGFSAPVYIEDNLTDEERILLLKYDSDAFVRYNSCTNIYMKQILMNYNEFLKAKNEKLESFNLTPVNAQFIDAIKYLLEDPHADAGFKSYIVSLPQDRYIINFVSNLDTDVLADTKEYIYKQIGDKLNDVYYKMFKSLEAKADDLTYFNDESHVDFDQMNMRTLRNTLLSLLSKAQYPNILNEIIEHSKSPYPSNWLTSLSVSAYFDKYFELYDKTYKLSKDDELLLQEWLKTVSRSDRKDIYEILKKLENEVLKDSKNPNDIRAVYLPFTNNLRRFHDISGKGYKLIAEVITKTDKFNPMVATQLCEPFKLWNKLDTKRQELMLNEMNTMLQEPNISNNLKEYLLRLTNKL

[6] = inhibitors of intracellular T. cruzi replication, confirmation, NIH3T3 host cells, beta-gal luminescence (AID 2044); assay type: functional, cell-based;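 also: intracellular parasites grown in NIH/3T3 mouse fibroblasts as host cells; luminescent beta-galactosidase reporter signal from transgenic T. cruzi replicating inside host cells; inhibitors lower the luminescence signal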
[7] = cytotoxicity toward NIH3T3 fibroblasts, dose response, counter-screen, cell-based, ATP luminescence, mouse fibroblasts (AID 2010); assay type: functional;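 also: cells exposed to compound for about 90 hours before reading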
[8] = HEp-2 cell cytotoxicity, dose response, cytotoxicity control for RSV inhibitor project, HTS (AID 2410); assay type: functional; conditions: human respiratory syncytial virus
[9] = inhibitors of Vif binding to APOBEC3G peptide, primary screen, biochemical, TR-FRET, GST-Vif 1-94, biotin-A3G peptide, dose response retest (AID 1117319); assay type: functional;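 also: TR-FRET signal of purified GST-Vif binding a biotinylated A3G peptide; inhibitors lower the FRET signal by blocking Vif and A3G binding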
[10] = biological target: T4, Rac GTPase-activating protein 1 (Homo sapiens, UniProt Q9H0H5); experiment: MgcRacGAP GTPase-activating activity inhibitors, confirmation, biochemical, ADP Hunter fluorescence, primary and confirmatory (AID 624330); assay type: functional
T4 sequence (Q9H0H5 whole entry): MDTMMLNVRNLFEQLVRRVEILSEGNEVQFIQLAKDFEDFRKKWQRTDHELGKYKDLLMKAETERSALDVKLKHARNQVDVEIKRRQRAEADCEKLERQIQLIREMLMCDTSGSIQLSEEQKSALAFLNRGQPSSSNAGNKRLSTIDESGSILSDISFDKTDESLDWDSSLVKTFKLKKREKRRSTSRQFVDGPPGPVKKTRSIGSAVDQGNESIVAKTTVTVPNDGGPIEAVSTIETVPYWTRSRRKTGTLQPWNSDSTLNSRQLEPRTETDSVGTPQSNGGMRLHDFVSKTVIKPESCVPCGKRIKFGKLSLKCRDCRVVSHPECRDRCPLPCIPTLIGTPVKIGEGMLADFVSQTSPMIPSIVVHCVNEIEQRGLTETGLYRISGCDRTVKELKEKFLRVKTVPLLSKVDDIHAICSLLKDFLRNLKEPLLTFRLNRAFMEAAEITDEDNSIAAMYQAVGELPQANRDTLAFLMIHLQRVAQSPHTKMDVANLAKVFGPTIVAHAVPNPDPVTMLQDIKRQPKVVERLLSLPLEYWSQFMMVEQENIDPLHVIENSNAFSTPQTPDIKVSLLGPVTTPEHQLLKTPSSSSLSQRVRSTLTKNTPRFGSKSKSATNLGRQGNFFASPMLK

cells [11] = assay type: functional, cell-based
Nonstructural protein 1 = Nonstructural protein 1 (Influenza A virus, UniProt Q194T2); assay type: functional, Influenza A virus (A/California/07/2009(H1N1))
Sequence of Nonstructural protein 1 (Q194T2 whole entry, the tested form may be a part): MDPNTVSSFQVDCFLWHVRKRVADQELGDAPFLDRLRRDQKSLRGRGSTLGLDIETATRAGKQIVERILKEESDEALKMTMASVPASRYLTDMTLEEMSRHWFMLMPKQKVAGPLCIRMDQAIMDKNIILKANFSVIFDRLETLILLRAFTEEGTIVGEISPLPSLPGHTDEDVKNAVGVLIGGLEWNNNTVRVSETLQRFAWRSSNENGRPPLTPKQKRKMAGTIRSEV

Fatty acid synthase [12] = biological target: T5, Fatty acid synthase (Homo sapiens, UniProt P49327); experiment: FAS thioesterase domain inhibitors, dose response, biochemical, kinetic fluorescence intensity (AID 624326); assay type: functional;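 also: rate of fluorescence rise from hydrolysis of a fluorogenic O-methyl fluorescein ester substrate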
T5 sequence (P49327 whole entry, the tested form may be a part): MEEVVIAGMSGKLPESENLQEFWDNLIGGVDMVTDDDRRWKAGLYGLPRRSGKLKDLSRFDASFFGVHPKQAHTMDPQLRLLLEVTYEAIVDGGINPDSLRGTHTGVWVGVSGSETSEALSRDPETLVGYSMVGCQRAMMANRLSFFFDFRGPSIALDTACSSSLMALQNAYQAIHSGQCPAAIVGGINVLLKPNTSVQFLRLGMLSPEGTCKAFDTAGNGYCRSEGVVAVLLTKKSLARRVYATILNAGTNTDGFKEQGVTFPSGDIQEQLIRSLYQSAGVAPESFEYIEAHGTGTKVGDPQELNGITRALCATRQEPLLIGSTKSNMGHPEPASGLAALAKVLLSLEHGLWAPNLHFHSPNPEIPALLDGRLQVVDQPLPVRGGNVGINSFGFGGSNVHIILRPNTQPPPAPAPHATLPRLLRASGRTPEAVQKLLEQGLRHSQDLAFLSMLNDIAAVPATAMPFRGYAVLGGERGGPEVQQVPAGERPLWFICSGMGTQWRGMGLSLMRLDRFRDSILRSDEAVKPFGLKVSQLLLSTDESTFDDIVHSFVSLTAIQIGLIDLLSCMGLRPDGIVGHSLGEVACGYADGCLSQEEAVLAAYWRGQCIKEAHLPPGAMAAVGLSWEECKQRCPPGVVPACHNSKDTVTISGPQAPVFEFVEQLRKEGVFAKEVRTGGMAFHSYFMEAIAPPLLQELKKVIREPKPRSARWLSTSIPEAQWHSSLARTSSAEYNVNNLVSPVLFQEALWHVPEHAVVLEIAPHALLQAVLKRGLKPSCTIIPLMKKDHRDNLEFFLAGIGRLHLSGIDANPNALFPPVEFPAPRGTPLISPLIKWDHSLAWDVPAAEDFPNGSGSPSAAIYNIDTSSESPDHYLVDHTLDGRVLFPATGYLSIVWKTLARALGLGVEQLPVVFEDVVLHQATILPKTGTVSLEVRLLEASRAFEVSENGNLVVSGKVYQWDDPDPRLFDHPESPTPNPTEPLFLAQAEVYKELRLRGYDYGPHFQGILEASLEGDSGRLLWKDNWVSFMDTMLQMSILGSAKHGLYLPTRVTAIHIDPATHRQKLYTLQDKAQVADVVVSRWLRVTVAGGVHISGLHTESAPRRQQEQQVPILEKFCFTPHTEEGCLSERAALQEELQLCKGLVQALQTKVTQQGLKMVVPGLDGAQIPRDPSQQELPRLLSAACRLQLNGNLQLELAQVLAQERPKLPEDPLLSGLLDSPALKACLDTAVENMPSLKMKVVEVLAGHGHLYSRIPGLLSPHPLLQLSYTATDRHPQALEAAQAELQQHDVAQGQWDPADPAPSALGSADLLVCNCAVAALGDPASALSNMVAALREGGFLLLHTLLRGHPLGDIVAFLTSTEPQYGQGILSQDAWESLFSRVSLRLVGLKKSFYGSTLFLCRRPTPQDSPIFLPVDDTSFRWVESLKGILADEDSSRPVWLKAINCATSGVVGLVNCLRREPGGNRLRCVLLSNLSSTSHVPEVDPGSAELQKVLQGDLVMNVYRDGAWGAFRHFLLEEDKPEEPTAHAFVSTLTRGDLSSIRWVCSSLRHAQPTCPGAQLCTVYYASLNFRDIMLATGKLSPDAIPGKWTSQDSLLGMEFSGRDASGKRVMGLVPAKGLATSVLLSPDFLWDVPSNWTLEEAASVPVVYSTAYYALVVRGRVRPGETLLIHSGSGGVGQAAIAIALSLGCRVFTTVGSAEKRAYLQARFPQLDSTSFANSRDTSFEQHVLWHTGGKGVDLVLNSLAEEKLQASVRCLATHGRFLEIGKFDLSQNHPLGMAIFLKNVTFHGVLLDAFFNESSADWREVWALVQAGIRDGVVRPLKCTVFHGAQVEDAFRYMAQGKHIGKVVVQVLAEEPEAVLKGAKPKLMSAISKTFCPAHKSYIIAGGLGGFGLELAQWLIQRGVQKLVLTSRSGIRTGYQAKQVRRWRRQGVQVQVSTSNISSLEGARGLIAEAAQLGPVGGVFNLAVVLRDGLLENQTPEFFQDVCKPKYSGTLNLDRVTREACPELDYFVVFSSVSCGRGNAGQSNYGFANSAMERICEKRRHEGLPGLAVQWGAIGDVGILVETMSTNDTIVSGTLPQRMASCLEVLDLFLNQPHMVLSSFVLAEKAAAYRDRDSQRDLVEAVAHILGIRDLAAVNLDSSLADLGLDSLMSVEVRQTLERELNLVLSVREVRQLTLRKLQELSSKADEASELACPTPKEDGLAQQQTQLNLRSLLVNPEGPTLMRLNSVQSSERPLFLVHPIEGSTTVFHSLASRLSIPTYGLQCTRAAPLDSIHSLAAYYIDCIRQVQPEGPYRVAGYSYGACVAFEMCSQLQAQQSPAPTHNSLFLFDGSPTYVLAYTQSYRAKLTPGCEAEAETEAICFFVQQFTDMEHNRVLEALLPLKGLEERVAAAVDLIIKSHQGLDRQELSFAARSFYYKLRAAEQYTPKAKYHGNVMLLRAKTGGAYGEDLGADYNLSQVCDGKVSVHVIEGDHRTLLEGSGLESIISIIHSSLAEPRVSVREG

Fatty acid synthase [13] = biological target: T5, Fatty acid synthase; experiment: FAS thioesterase domain inhibitors, dose response, biochemical, endpoint fluorescence intensity, uHTS hits (AID 624327); assay type: functional;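 also: fluorescence from hydrolysis of an O-methyl fluorescein acyl ester substrate by the enzyme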
cells [14] = assay type: functional, cell-based; remark: listed apart in the source
[15] = biological target: T6, Heat shock factor protein 1 (Mus musculus, UniProt P38532); experiment: inhibition of MG132-induced HSE-luciferase signal, confirmation, cell-based, NIH3T3, luminescence, dose retest (AID 2382); assay type: functional;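 also: NIH3T3 fibroblasts with HSF1-driven luciferase reporter stressed by proteasome inhibitor MG132; luminescence from HSF1-driven luciferase expression after 8 hours of MG132 stress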
T6 sequence (P38532 whole entry): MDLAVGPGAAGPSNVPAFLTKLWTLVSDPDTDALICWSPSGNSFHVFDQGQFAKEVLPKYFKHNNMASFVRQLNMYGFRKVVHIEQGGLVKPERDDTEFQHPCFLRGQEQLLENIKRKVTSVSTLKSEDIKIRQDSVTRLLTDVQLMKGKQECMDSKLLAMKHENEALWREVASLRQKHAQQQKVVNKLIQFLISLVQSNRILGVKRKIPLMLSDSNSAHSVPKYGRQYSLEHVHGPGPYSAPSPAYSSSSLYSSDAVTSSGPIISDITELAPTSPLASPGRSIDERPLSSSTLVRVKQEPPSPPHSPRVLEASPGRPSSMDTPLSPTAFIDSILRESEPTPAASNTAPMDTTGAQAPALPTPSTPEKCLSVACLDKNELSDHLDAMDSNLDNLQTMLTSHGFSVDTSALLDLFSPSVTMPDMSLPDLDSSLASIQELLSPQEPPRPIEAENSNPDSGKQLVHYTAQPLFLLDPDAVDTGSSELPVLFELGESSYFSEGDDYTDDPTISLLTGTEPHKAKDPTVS

Large T antigen = Large T antigen (Simian virus 40, UniProt P03070); assay type: functional, Betapolyomavirus macacae;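 also: Confirmatory-stage PubChem screen for compounds that inhibit SV40 T antigen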
Sequence of Large T antigen (P03070 whole entry): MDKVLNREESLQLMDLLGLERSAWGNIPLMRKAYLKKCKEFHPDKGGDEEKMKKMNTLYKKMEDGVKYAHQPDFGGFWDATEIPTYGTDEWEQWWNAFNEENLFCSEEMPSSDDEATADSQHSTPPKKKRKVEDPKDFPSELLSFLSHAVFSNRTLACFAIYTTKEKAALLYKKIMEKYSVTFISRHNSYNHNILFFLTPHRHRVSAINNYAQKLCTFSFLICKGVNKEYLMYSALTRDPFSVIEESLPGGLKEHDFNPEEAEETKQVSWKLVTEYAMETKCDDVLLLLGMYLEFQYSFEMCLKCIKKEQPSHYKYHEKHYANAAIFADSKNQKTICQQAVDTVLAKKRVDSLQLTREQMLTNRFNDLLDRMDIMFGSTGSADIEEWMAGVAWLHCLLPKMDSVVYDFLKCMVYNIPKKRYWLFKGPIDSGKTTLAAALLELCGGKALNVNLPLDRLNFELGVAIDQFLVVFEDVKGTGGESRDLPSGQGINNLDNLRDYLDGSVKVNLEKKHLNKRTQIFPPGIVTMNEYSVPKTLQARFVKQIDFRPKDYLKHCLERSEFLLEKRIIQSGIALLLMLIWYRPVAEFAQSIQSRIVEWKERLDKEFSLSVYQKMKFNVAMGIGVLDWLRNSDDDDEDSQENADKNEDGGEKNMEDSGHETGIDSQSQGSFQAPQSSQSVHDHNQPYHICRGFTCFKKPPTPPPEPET

Cc1cccc(C)c1N=Nc1c(C)cc(O)cc1C
AC50 [1]: 5.46 µM (active)
AC50 [2]: > 20 µM (inactive)
AC50 [3]: 8.38 µM (active)

CC1(C)Cc2c(cnn2-c2ccccc2)-c2c1c1ccccc1n2CC(O)CCl (stereo not drawn)
EC50 (Streptococcus): > 150 µM (not active)
EC50 [4]: 8.41 µM (active)
EC50 (Streptokinase A): 13.7 µM (active)
CC50 [5]: > 40 µM (active)

Cc1ccc(/C=C2\SC(NS(=O)(=O)c3cccs3)=NC2=O)cc1
IC50 (Genome polyprotein): 71.5 µM (active)
IC50 (Aminopeptidase N): 33.1 µM (active)

CCc1ccc2nc(N(CCCN(C)C)C(=O)c3ccc(S(=O)(=O)N4CCCc5ccccc54)cc3)sc2c1
AC50 [1]: 6.44 µM (active)
EC50 [6]: 0.187 µM (active)
EC50 [7]: 9.15 µM (active)
CC50 [8]: 12.7 µM (active)
CC50 [5]: 13.8 µM (active)

Cc1cccc(C(=O)NC2CCN(C(=S)NCc3ccco3)CC2)c1
IC50 (Aminopeptidase N): 113 µM (active)

O=C(NC1CCN(C(=S)NCc2ccco2)CC1)c1cccc(F)c1
IC50 (Aminopeptidase N): 79.9 µM (active)

CCCc1cc(O)nc(SCC(=O)Nc2cc3c(cc2C(C)=O)OCO3)n1
IC50 [9]: > 100 µM (active)

Cc1ccccc1N(CC(=O)NC(C)(C)C)C(=O)C[S+]([O-])CC(=O)Nc1ccc2c(c1)OCO2 (stereo not drawn)
IC50 (Aminopeptidase N): 79.3 µM (active)

CC1(c2ccc3noc(-c4ccccc4)c3c2)OCCO1
IC50 [9]: > 100 µM (active)

Cc1ccc(Cl)cc1N1CCN(Cc2nc(O)c3sccc3n2)CC1
CC50 [5]: > 40 µM (active)

CCNC(=O)CC1C(=O)N(c2ccc(C)cc2)C(=O)N1CCc1ccc(OC)c(OC)c1 (stereo not drawn)
IC50 [9]: > 100 µM (active)

COc1cc2c(cc1N)-c1ccc(N)cc1C2
IC50 [9]: > 100 µM (active)
IC50 [10]: 10.7 µM (active)

O=C(Cn1cnc([N+](=O)[O-])n1)N/N=C/c1cc(Cl)ccc1O
EC50 (cells [11]): > 350 µM (not active)
IC50 (Nonstructural protein 1): 12.3 µM (active)
IC50 (Fatty acid synthase [12]): 2.94 µM (active)
IC50 (Aminopeptidase N): 13.3 µM (active)
IC50 (Fatty acid synthase [13]): 1.22 µM (active)
EC50 (cells [14]): 14.5 µM (active)

COc1cc(/C=N/N=C2/C(=O)Nc3ccccc32)cc(OC)c1O
EC50 [15]: > 195 µM (not active)
AC50 [2]: > 20 µM (inactive)
IC50 [10]: 50.9 µM (active)
IC50 (Large T antigen): 12.4 µM (active)
